How the values were obtained:
Format in all cases: biochemical
ERK2 = ERK2 (Homo sapiens, UniProt P28482); assay: ERK2 inhibition assay (spectrophotometric coupled-enzyme assay); details: read-out: ERK2 Inhibitory Activity (Ki class D-F)
Procedure: The IC50 was evaluated from the rate data as a function of inhibitor concentration. […] The compound numbers correspond to the compound numbers in Table 1.

CDK-2/Cyclin A = CDK-2/Cyclin A (Homo sapiens, UniProt P24941); assay: CDK-2 inhibition assay (coupled enzyme assay)
Procedure: To an assay stock buffer solution containing 0.1M HEPES 7.5, 10 mM MgCl2, 1 mM DTT, 25 mM NaCl, 2.5 mM phosphoenolpyruvate, […], […], […], […], and 100 μM peptide ([…], American Peptide, Sunnyvale, Calif.) was added a DMSO solution of a compound of the present invention to a final concentration of 30 μM.
The Ki values were determined from the rate data as a function of inhibitor concentration.

GSK-3β (AA 1–420) = molecular target: T1, GSK-3β (AA 1–420) (Homo sapiens, UniProt P49841); assay: GSK-3 inhibition assay (coupled enzyme system); details: read-out: GSK3 Inhibitory Activity (Ki class)
T1 construct: GSK-3β (AA 1–420)
Procedure: Final substrate concentrations in the assay were 20 μM ATP (Sigma Chemicals, St Louis, Mo.) and 300 μM peptide (HSSPHQS(PO3H2)EDEEE, American Peptide, Sunnyvale, Calif.). Reactions were carried out at 30° C. and 20 nM GSK-3β. Final concentrations of the components of the coupled enzyme system were 2.5 mM phosphoenolpyruvate, 300 μM NADH, 30 μg/ml pyruvate kinase and 10 μg/ml lactate dehydrogenase.
An assay stock buffer solution was prepared containing all of the reagents listed above with the exception of ATP and the test compound of interest. The assay stock buffer'solution (175 μl) was incubated in a 96 well plate with 5 μl of the test compound of interest at final concentrations spanning 0.002 μM to 30 μM at 30° C. for 10 min. […] The reaction was initiated by the addition of 20 μl of ATP (final concentration 20 μM). Rates of reaction were obtained using a Molecular Devices Spectramax plate reader (Sunnyvale, Calif.) over 10 min at 30° C. The Ki values were determined from the rate data as a function of inhibitor concentration.
The compound numbers correspond to the compound numbers in Table 1.

T1 sequence (P49841 whole entry, species assumed, the tested form may be a part): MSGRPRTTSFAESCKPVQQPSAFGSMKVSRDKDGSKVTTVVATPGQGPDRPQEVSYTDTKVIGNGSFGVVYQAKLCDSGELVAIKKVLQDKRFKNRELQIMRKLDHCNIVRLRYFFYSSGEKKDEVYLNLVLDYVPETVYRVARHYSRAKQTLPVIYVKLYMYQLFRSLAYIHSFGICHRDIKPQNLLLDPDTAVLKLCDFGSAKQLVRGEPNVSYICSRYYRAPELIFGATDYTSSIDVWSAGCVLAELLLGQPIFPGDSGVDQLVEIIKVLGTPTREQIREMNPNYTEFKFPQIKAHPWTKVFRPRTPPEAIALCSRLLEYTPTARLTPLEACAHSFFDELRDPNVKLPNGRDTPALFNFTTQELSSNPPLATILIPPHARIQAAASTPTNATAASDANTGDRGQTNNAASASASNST
ERK2, sequence (P28482 whole entry): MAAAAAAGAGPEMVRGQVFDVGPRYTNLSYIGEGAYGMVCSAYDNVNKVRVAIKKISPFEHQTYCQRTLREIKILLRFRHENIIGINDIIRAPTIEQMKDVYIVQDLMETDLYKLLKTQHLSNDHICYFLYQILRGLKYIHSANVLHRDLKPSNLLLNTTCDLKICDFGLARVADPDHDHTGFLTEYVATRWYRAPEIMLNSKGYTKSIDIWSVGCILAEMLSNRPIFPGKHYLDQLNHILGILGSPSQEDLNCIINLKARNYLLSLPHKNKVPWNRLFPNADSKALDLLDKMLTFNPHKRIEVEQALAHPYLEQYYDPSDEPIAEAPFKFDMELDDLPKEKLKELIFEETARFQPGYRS

Structure (SMILES) | Ki (ERK2) | Ki (CDK-2/Cyclin A) | Ki (GSK-3β (AA 1–420))
Cc1cnc(Nc2cccc(F)c2)nc1-c1c[nH]c(C(=O)NC(CO)c2cccc(C(F)(F)F)c2)c1 (centres unmarked) [III-a-148, 4-[2-(3-Fluoro-phenylamino)-5-methyl-pyrimidin-4-yl]-1H-pyrrole-2-carboxylic acid [2-hydroxy-1-(3-trifluoromethyl-phenyl)-ethyl]-amide] | < 100 nM | 100 to 1000 nM | < 100 nM
Cc1cnc(NC2CCC(O)CC2)nc1-c1c[nH]c(C(=O)NC(CO)c2ccccc2)c1 (centres unmarked) [III-a-142, 4-[2-(4-Hydroxy-cyclohexylamino)-5-methyl-pyrimidin-4-yl]-1H-pyrrole-2-carboxylic acid (2-hydroxy-1-phenyl-ethyl)-amide] | < 100 nM | < 100 nM | < 100 nM
COc1ccccc1Nc1ncc(C)c(-c2c[nH]c(C(=O)NC(CO)c3ccccc3)c2)n1 (centres unmarked) [III-a-156, 4-[2-(2-Methoxy-phenylamino)-5-methyl-pyrimidin-4-yl]-1H-pyrrole-2-carboxylic acid (2-hydroxy-1-phenyl-ethyl)-amide] |  | 1000 to 20000 nM | 100 to 1000 nM
Cc1cnc(NC(CO)CO)nc1-c1c[nH]c(C(=O)NC(CO)c2cccc(Cl)c2)c1 (centres unmarked) [III-a-233, 4-[2-(2-Hydroxy-1-hydroxymethyl-ethylamino)-5-methyl-pyrimidin-4-yl]-1H-pyrrole-2-carboxylic acid [1-(3-chloro-phenyl)-2-hydroxy-ethyl]-amide] | < 100 nM |  | > 1000 nM
Cc1cccc(C(CO)NC(=O)c2cc(-c3nc(Nc4ccccc4Cl)ncc3C)c[nH]2)c1 (centres unmarked) [III-a-209, 4-[2-(2-Chloro-phenylamino)-5-methyl-pyrimidin-4-yl]-1H-pyrrole-2-carboxylic acid (2-hydroxy-1-m-tolyl-ethyl)-amide] | < 100 nM |  | < 100 nM
Cc1cnc(NCC(F)(F)F)nc1-c1c[nH]c(C(=O)NC(CO)c2ccccc2)c1 (centres unmarked) [III-a-154, 4-[5-Methyl-2-(2,2,2-trifluoro-ethylamino)-pyrimidin-4-yl]-1H-pyrrole-2-carboxylic acid (2-hydroxy-1-phenyl-ethyl)-amide] | < 100 nM |  | < 100 nM
CCNc1ncc(C)c(-c2c[nH]c(C(=O)NC(CO)c3cc(F)cc(C(F)(F)F)c3)c2)n1 (centres unmarked) [III-a-190, 4-(2-Ethylamino-5-methyl-pyrimidin-4-yl)-1H-pyrrole-2-carboxylic acid [1-(3-fluoro-5-trifluoromethyl-phenyl)-2-hydroxy-ethyl]-amide] | 100 to 1000 nM |  | 100 to 1000 nM
Cc1cccc(C(CO)NC(=O)c2cc(-c3nc(NC(CO)c4ccccc4)ncc3C)c[nH]2)c1 (centres unmarked) [III-a-210, 4-[2-(2-Hydroxy-1-phenyl-ethylamino)-5-methyl-pyrimidin-4-yl]-1H-pyrrole-2-carboxylic acid (2-hydroxy-1-m-tolyl-ethyl)-amide] | < 100 nM |  | > 1000 nM
Cc1cnc(NC(C)CO)nc1-c1c[nH]c(C(=O)NC(CO)c2ccccc2)c1 (centres unmarked) [III-a-176, 4-[2-(2-Hydroxy-1-methyl-ethylamino)-5-methyl-pyrimidin-4-yl]-1H-pyrrole-2-carboxylic acid (2-hydroxy-1-phenyl-ethyl)-amide] | < 100 nM |  | < 100 nM
O=C(NC(CO)c1ccccc1)c1cc(-c2nc(Nc3ccccc3)ncc2C2CC2)c[nH]1 (centres unmarked) [III-a-144, 4-(5-Cyclopropyl-2-phenylamino-pyrimidin-4-yl)-1H-pyrrole-2-carboxylic acid (2-hydroxy-1-phenyl-ethyl)-amide] | 100 to 1000 nM |  | > 1000 nM
Cc1cccc(C(CO)NC(=O)c2cc(-c3nc(Nc4cccc(F)c4)ncc3C)c[nH]2)c1 (centres unmarked) [III-a-212, 4-[2-(3-Fluoro-phenylamino)-5-methyl-pyrimidin-4-yl]-1H-pyrrole-2-carboxylic acid (2-hydroxy-1-m-tolyl-ethyl)-amide] | < 100 nM |  | < 100 nM
CNc1ncc(C)c(-c2c[nH]c(C(=O)NC(CO)c3ccc(F)c(Cl)c3)c2)n1 (centres unmarked) [III-a-134, 4-(5-Methyl-2-methylamino-pyrimidin-4-yl)-1H-pyrrole-2-carboxylic acid [1-(3-chloro-4-fluoro-phenyl)-2-hydroxy-ethyl]-amide] | < 100 nM |  | > 1000 nM
Cc1cnc(NC(CO)C(C)C)nc1-c1c[nH]c(C(=O)NC(CO)c2ccccc2)c1 (centres unmarked) [III-a-196, 4-[2-(1-Hydroxymethyl-2-methyl-propylamino)-5-methyl-pyrimidin-4-yl]-1H-pyrrole-2-carboxylic acid (2-hydroxy-1-phenyl-ethyl)-amide] | < 100 nM |  | > 1000 nM
Cc1cnc(NOCCO)nc1-c1c[nH]c(C(=O)NC(CO)c2ccccc2)c1 (centres unmarked) [III-a-225, 4-[2-(2-Hydroxy-ethoxyamino)-5-methyl-pyrimidin-4-yl]-1H-pyrrole-2-carboxylic acid (2-hydroxy-1-phenyl-ethyl)-amide] | < 100 nM |  | < 100 nM
Cc1cccc(C(CO)NC(=O)c2cc(-c3nc(Nc4cccc(N(C)C)c4)ncc3C)c[nH]2)c1 (centres unmarked) [III-a-208] | < 100 nM |  | < 100 nM
Cc1cnc(NC2CCCCC2O)nc1-c1c[nH]c(C(=O)NC(CO)c2ccccc2)c1 (centres unmarked) [III-a-179, 4-[2-(2-Hydroxy-cyclohexylamino)-5-methyl-pyrimidin-4-yl]-1H-pyrrole-2-carboxylic acid (2-hydroxy-1-phenyl-ethyl)-amide] | < 100 nM |  | < 100 nM
Cc1cnc(Nc2ccc(OC(F)(F)F)cc2)nc1-c1c[nH]c(C(=O)NC(CO)c2ccccc2)c1 (centres unmarked) [III-a-157, 4-[5-Methyl-2-(4-trifluoromethoxy-phenylamino)-pyrimidin-4-yl]-1H-pyrrole-2-carboxylic acid (2-hydroxy-1-phenyl-ethyl)-amide] | < 100 nM |  | < 100 nM
CCNc1ncc(CO)c(-c2c[nH]c(C(=O)NC(CO)c3ccccc3)c2)n1 (centres unmarked) [III-a-189, 4-(2-Ethylamino-5-hydroxymethyl-pyrimidin-4-yl)-1H-pyrrole-2-carboxylic acid (2-hydroxy-1-phenyl-ethyl)-amide] | < 100 nM |  | > 1000 nM
Cc1cnc(NCC(C)O)nc1-c1c[nH]c(C(=O)NC(CO)c2ccccc2)c1 (centres unmarked) [III-a-178, 4-[2-(2-Hydroxy-propylamino)-5-methyl-pyrimidin-4-yl]-1H-pyrrole-2-carboxylic acid (2-hydroxy-1-phenyl-ethyl)-amide] | < 100 nM |  | 100 to 1000 nM
COc1ccccc1C(CO)NC(=O)c1cc(-c2nc(NC3CC3)ncc2C)c[nH]1 (centres unmarked) [III-a-203, 4-(2-Cyclopropylamino-5-methyl-pyrimidin-4-yl)-1H-pyrrole-2-carboxylic acid [2-hydroxy-1-(2-methoxy-phenyl)-ethyl]-amide] | < 100 nM |  | 100 to 1000 nM
Cc1cnc(NCC2CCCO2)nc1-c1c[nH]c(C(=O)NC(CO)c2ccccc2)c1 (centres unmarked) [III-a-216, 4-{5-Methyl-2-[(tetrahydro-furan-2-ylmethyl)-amino]-pyrimidin-4-yl}-1H-pyrrole-2-carboxylic acid (2-hydroxy-1-phenyl-ethyl)-amide] | < 100 nM |  | < 100 nM
CCNc1ncc(C)c(-c2c[nH]c(C(=O)NC(CCO)c3ccccc3)c2)n1 (centres unmarked) [III-a-173, 4-(2-Ethylamino-5-methyl-pyrimidin-4-yl)-1H-pyrrole-2-carboxylic acid (3-hydroxy-1-phenyl-propyl)-amide] | 100 to 1000 nM |  | > 1000 nM
CC(=O)Nc1ncc(C)c(-c2c[nH]c(C(=O)NC(CO)c3ccccc3)c2)n1 (centres unmarked) [III-a-213, 4-(2-Acetylamino-5-methyl-pyrimidin-4-yl)-1H-pyrrole-2-carboxylic acid (2-hydroxy-1-phenyl-ethyl)-amide] | < 100 nM |  | 100 to 1000 nM
Cc1cnc(NCCO)nc1-c1c[nH]c(C(=O)NC(CO)c2ccccc2)c1 (centres unmarked) [III-a-175, 4-[2-(2-Hydroxy-ethylamino)-5-methyl-pyrimidin-4-yl]-1H-pyrrole-2-carboxylic acid (2-hydroxy-1-phenyl-ethyl)-amide] | < 100 nM |  | 100 to 1000 nM
Cc1cccc(C(CO)NC(=O)c2cc(-c3nc(Nc4cccc(C)c4C)ncc3C)c[nH]2)c1 (centres unmarked) [III-a-211, 4-[2-(2,3-Dimethyl-phenylamino)-5-methyl-pyrimidin-4-yl]-1H-pyrrole-2-carboxylic acid (2-hydroxy-1-m-tolyl-ethyl)-amide] | < 100 nM |  | 100 to 1000 nM
Cc1cnc(Nc2ccccc2)nc1-c1c[nH]c(C(=O)NC(CO)c2cccc(C(F)(F)F)c2)c1 (centres unmarked) [III-a-146, 4-(5-Methyl-2-phenylamino-pyrimidin-4-yl)-1H-pyrrole-2-carboxylic acid [2-hydroxy-1-(3-trifluoromethyl-phenyl)-ethyl]-amide] |  | 100 to 1000 nM | 100 to 1000 nM
Cc1cnc(NC(C)C)nc1-c1c[nH]c(C(=O)NC(CO)c2ccccc2)c1 (centres unmarked) [III-a-153, 4-(2-Isopropylamino-5-methyl-pyrimidin-4-yl)-1H-pyrrole-2-carboxylic acid (2-hydroxy-1-phenyl-ethyl)-amide] | < 100 nM |  | < 100 nM
